Reference: US20240197699A1, “BE[…] FOR USE IN THERAPY” (MOLECULAR RESEARCH PHARMACT S.R.L., priority 2021, published 2024)

Tests used:
[1] = test system: AMPK, the downstream intracellular mediator of adiponectin receptors; test: Concentration-dependent activation of AMPK in HT22 neuronal cells (western blot, pAMPK/AMPK); format: cell-based, mouse; conditions: HT22 cells, 0, 10, 25 nM, 30 minutes, serum-free DMEM
Description: A rabbit anti-phospho-AMPK polyclonal antibody (pAMPK) (Cell Signaling Technology, Ltd.), a rabbit anti-AMPK polyclonal antibody (Cell Signaling Technology, Ltd.) and an HRP conjugated mouse monoclonal anti-β-actin antibody (Cell Signaling Technology, Ltd.) were used as primary antibodies after being suitably diluted. An HRP-labeled rabbit IgG goat antibody (Dako, Glostrup, Denmark) was used as a secondary antibody.
(§1) Under conditions of 5% CO2 at 37° C., mouse neuronal cells (HT22) were maintained and expanded in a Dulbecco-modified high-glucose Eagle medium (DMEM, GIBCO, Invitrogen, Life Technologies Hong Kong Ltd.), containing 10% fetal bovine serum (FBS, HiClone, Cytiva Co., Ltd.) and 1% v/v penicillin/streptomycin (Life Technologies Hong Kong Ltd.).
The compound was dissolved in DMSO (Sigmaldrich Co Ltd.) at a concentration of 10 mM as a stock. […]
Each cell sample was homogenized in ice-cold lysis buffer (Cell Signaling Technology, USA), containing a cocktail of protease inhibitors, by ultrasonic homogenizer before being centrifuged at 12,000×g, 4° C. for 15 min. […] The protein concentration of each fraction was measured using the BioRad Protein Assay reagent (Bio-Rad Laboratories, Inc.). […] The densitometric analysis of the bands detected by the chemiluminescent reaction was quantified by the Image J software (NIH: National Institutes of Health). […]

AdipoR1 = biological target: T1, AdipoR1 (Mus musculus, UniProt Q91VH1); test: AMPK activation by the compound in HT22 cells under AdipoR1 knock-down (siAdipoR1); format: cell-based; conditions: HT22 cells transfected with siAdipoR1, compound 25 nM, 30 minutes
T1 construct: siAdipoR1, siAdipoR2 were prepared in DMEM to break down the expression of AdipoR1 and AdipoR2, respectively; endogenous in cells; host or cells: HT22 mouse neuronal cells
T1 sequence (Q91VH1 1-375): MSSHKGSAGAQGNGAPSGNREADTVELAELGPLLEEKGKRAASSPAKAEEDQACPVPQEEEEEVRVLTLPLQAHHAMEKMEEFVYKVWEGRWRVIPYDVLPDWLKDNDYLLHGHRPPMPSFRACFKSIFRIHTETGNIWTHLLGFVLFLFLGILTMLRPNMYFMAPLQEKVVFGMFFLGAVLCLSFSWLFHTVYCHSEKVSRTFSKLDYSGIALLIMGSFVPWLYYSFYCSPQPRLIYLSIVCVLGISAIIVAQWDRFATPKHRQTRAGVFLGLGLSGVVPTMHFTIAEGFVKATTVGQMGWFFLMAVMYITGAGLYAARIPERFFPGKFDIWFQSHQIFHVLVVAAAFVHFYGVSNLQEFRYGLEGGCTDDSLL
Description: A rabbit adiponectin anti-receptor 1 polyclonal antibody (AdipoR1)(Abcam, Cambridge, MA, USA), a rabbit adiponectin anti-receptor 2 polyclonal antibody (AdipoR2) (Boster Biological Technology, USA), an anti-phospho-AMPK (pAMPK) rabbit polyclonal antibody (Cell Signaling Technology, Ltd.), an anti-AMPK rabbit polyclonal antibody (Cell Signaling Technology, Ltd.) and an HRP conjugated mouse monoclonal anti-§ (beta)-actin antibody (Cell Signaling Technology, Ltd.) were used as primary antibodies after being suitably diluted. An HRP conjugated goat anti-rabbit IgG antibody (Dako, Glostrup, Denmark) was used as secondary antibody.
as §1, with “are” for “were”
SiRNA scramble (non-targeting RNA), siAdipoR1 and siAdipoR2 were purchased from Santa Cruz Biotechnology. siAdipoR1, siAdipoR2 were prepared in DMEM to break down the expression of AdipoR1 and AdipoR2, respectively. […]
The extraction of each soluble fraction and the quantification of the proteins in each soluble fraction by western blot analysis were performed according to procedures similar to section 1.4 of Experiment 1.

NSC-34 cells = test: Viability of NSC-34 neuronal cells under high glucose (hyperglycemia-induced apoptosis); format: cell-based; conditions: pre-treatment 25 nM, then 100 mM glucose
Description: A high glucose level is the cause of neuronal apoptosis leading to diabetic neuropathy. To examine whether SS-SRGR-(+7) can protect neurons from the hyperglycemic condition, neuronal cells in different glucose concentrations (0, 25, 50, 100 mM) were grown. […] NSC-34 neurons were then pre-treated with or without SS-SRGR-(+7)(25 nM) prior to incubation with 100 mM glucose.

## CC1C2Cc3ccc(O)cc3C1(C)CCN2CCC(C(=O)N(C)C)(c1ccccc1)c1ccccc1 (stereo not drawn) [SS-SRGR-(+7), 4-(8-hydroxy-6,11-dimethyl-1,4,5,6-tetrahydro-2,6-methane-3-benzazocin-3(2H)-yl)-N,N-dimethyl-2,2-diphenylbutanamide]
[1]
  amounts of pAMPK proteins (pAMPK/AMPK ratio, densitometry): increase significantly in a concentration-dependent manner
AdipoR1
  SS-SRGR-(+7)-induced AMPK activation under Adipo-R1 knock-down compared to siCtrl-transfected HT22 cells: significantly reduced
NSC-34 cells
  Cell viability of pretreated NSC34 cells versus vehicle-pretreated NSC34: significantly higher
